Source: the supplement of paper PMC4862054
Values joined by “and” are separate entries in the source; they are usually repeats but may differ in a detail not shown here. Equal values may be shown once.

Columns and labels:
MDA-MB-468 [1] = assay: normalised viability (% of control), CellTiter-Blue; higher = more viable cells (about 100 = DMSO control); settings: incubation time: 72 h
In short: (§1)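 Breast cancer cell lines in 20 µl suspension were seeded onto 384-well plates pre-loaded with compound dissolved in 5 µl medium, then incubated 72 h. CellTiter-Blue reagent (2.5 µl) was added for 2 h at 37 °C and fluorescence read at 560/590 nm. Each plate was normalised to vehicle (100) and a positive kill control (0), with Z'-factor quality control. The value is normalised viability at one listed concentration of the series.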

BT-549 [2] = assay: as above; settings: incubation time: 72 h
In short: as §1

MDA-MB-231 [3] = assay: as above; settings: incubation time: 72 h
In short: as §1

HDQ-P1 = settings: 72 h
In short: (§2)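 Breast cancer cell lines (20 µl suspension) were seeded into 384-well plates holding compound at 5 concentrations in 10-fold steps over a compound-specific 10,000-fold range, then incubated 72 h. Cell death was read first by CellTox Green fluorescence (485/520 nm), then viability by CellTiter-Glo luminescence after 10 min at room temperature. Each plate was normalised to 0.1 % DMSO and a positive kill control. EC50 was fitted from the dose-response curves and censored at the top concentration.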

MCF-10A = settings: 72 h
In short: as §2

SK-BR-3 [4] = settings: 72 h
In short: as §2

CAL-85-1 = settings: 72 h
In short: as §2

HCC1599 [5] = settings: 72 h
In short: (§3)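 Breast cancer cell lines in 20 µl suspension were seeded onto 384-well plates pre-loaded with compound dissolved in 5 µl medium, then incubated 72 h. For viability, 2.5 µl CellTiter-Blue was added for 2 h at 37 °C and fluorescence read at 560/590 nm. Each plate was normalised to vehicle and a positive kill control and checked by Z'-factor. EC50 comes from the fitted percent-inhibition dose-response curve, censored at the highest concentration; rows with zero drug sensitivity score were dropped.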

MDA-MB-468 [6] = settings: 72 h
In short: as §3

BT-549 [7] = settings: 72 h
In short: as §3

CAL-120 [8] = settings: 72 h
In short: as §3

Hs578T [9] = settings: 72 h
In short: as §3

MDA-MB-231 [10] = settings: 72 h
In short: as §3

MFM-223 [11] = settings: 72 h
In short: as §3

SK-BR-3 [12] = settings: 72 h; remark: listed apart in the source
In short: as §3

HCC1937 = settings: 72 h
In short: as §3

MDA-MB-436 [13] = settings: 72 h
In short: as §3

DU-4475 = settings: 72 h
In short: as §2

CAL-120 [14] = settings: 72 h; remark: listed apart in the source
In short: as §2

BT-474 = settings: 72 h
In short: as §2

HCC1143 [15] = settings: 72 h
In short: as §3

CAL-51 = settings: 72 h
In short: as §2

HCC1599 [16] = settings: 72 h; remark: listed apart in the source
In short: as §2

MDA-MB-468 [17] = settings: 72 h; remark: listed apart in the source
In short: as §2

HCC1143 [18] = settings: 72 h; remark: listed apart in the source
In short: as §2

Hs578T [19] = settings: 72 h; remark: listed apart in the source
In short: as §2

MDA-MB-231 [20] = settings: 72 h; remark: listed apart in the source
In short: as §2

MFM-223 [21] = settings: 72 h; remark: listed apart in the source
In short: as §2

MDA-MB-436 [22] = settings: 72 h; remark: listed apart in the source
In short: as §2

CS(=O)(=O)CCNCc1ccc(-c2ccc3ncnc(Nc4ccc(OCc5cccc(F)c5)c(Cl)c4)c3c2)o1 [Lapatinib]
normalised viability (MDA-MB-468 [1]; 10 nM): 100% and 105%
normalised viability (MDA-MB-468 [1]; 1000 nM): 64.2% and 68.2%
normalised viability (MDA-MB-468 [1]; 10000 nM): 11.8% and 16.3%
normalised viability (BT-549 [2]; 10 nM): 74.6% and 99.6%
normalised viability (BT-549 [2]; 1000 nM): 86.5% and 103%
normalised viability (BT-549 [2]; 10000 nM): 14.1% and 20.7%
normalised viability (MDA-MB-231 [3]; 1000 nM): 85.8% and 109%
normalised viability (MDA-MB-231 [3]; 10000 nM): 52.9% and 52.4%
EC50, CellTiter-Glo (HDQ-P1): 359 nM
EC50, CellTiter-Glo (MCF-10A): 504 nM
EC50, CellTiter-Glo (SK-BR-3 [4]): 49.8 nM
EC50, CellTiter-Glo (CAL-85-1): 304 nM
EC50, CellTiter-Blue viability (HCC1599 [5]): 191 nM
EC50, CellTiter-Blue viability (MDA-MB-468 [6]): 1560 nM
EC50, CellTiter-Blue viability (BT-549 [7]): 4320 nM
EC50, CellTiter-Blue viability (CAL-120 [8]): 6920 nM
EC50, CellTiter-Blue viability (Hs578T [9]): 3790 nM
EC50, CellTiter-Blue viability (MDA-MB-231 [10]): 5820 nM
EC50, CellTiter-Blue viability (MFM-223 [11]): 9850 nM
EC50, CellTiter-Blue viability (SK-BR-3 [12]): 40.7 nM
EC50, CellTiter-Blue viability (HCC1937): 6280 nM
EC50, CellTiter-Blue viability (MDA-MB-436 [13]): 5900 nM

Cn1cnc2c(F)c(Nc3ccc(Br)cc3F)c(C(=O)NOCCO)cc21 [MEK-162]
normalised viability (MDA-MB-468 [1]; 1 nM): 107%
normalised viability (MDA-MB-468 [1]; 100 nM): 99.5%
normalised viability (MDA-MB-468 [1]; 1000 nM): 75.2%
normalised viability (BT-549 [2]; 1 nM): 100%
normalised viability (BT-549 [2]; 100 nM): 110%
normalised viability (BT-549 [2]; 1000 nM): 108%
normalised viability (MDA-MB-231 [3]; 1 nM): 104%
normalised viability (MDA-MB-231 [3]; 100 nM): 80.3%
normalised viability (MDA-MB-231 [3]; 1000 nM): 47%
EC50, CellTiter-Glo (HDQ-P1): 13.5 nM
EC50, CellTiter-Glo (MCF-10A): 11.8 nM
EC50, CellTiter-Glo (DU-4475): 78.7 nM
EC50, CellTiter-Glo (CAL-120 [14]): > 1000 nM
EC50, CellTiter-Glo (BT-474): 113 nM
EC50, CellTiter-Blue viability (HCC1599 [5]): 106 nM
EC50, CellTiter-Blue viability (HCC1143 [15]): 9.21 nM
EC50, CellTiter-Blue viability (MDA-MB-231 [10]): 364 nM

CN1CCN(c2ccc3nc(-c4c(N)c5c(F)cccc5[nH]c4=O)[nH]c3c2)CC1 [Dovitinib]
normalised viability (MDA-MB-468 [1]; 10 nM): 104%
normalised viability (MDA-MB-468 [1]; 1000 nM): 90.6%
normalised viability (MDA-MB-468 [1]; 10000 nM): 72.6%
normalised viability (BT-549 [2]; 10 nM): 83%
normalised viability (BT-549 [2]; 1000 nM): 97.1%
normalised viability (BT-549 [2]; 10000 nM): 89%
normalised viability (MDA-MB-231 [3]; 10 nM): 96.1%
normalised viability (MDA-MB-231 [3]; 1000 nM): 75.2%
normalised viability (MDA-MB-231 [3]; 10000 nM): 86.4%
EC50, CellTiter-Glo (CAL-120 [14]): > 10000 nM
EC50, CellTiter-Blue viability (HCC1937): 371 nM

CCCC(CCC)C(=O)O [Valproic acid]
normalised viability (MDA-MB-468 [1]; 10 nM): 105%
normalised viability (MDA-MB-468 [1]; 1000 nM): 117%
normalised viability (MDA-MB-468 [1]; 10000 nM): 121%
normalised viability (BT-549 [2]; 10 nM): 78.7%
normalised viability (BT-549 [2]; 1000 nM): 93.1%
normalised viability (BT-549 [2]; 10000 nM): 86.2%
normalised viability (MDA-MB-231 [3]; 10 nM): 109%
normalised viability (MDA-MB-231 [3]; 1000 nM): 101%
normalised viability (MDA-MB-231 [3]; 10000 nM): 116%
EC50, CellTiter-Glo (CAL-51): 441000 nM

C[C@@]1(C(=O)Nc2ccc(F)nc2)CCCN1c1nc(Nc2cc(C3CC3)n[nH]2)c2cccn2n1
normalised viability (MDA-MB-468 [1]; 10 nM): 115%
normalised viability (MDA-MB-468 [1]; 1000 nM): 61%
normalised viability (MDA-MB-468 [1]; 10000 nM): 40.7%
normalised viability (BT-549 [2]; 10 nM): 97.8%
normalised viability (BT-549 [2]; 1000 nM): 77.6%
normalised viability (BT-549 [2]; 10000 nM): 34.4%
normalised viability (MDA-MB-231 [3]; 10 nM): 90.6%
normalised viability (MDA-MB-231 [3]; 1000 nM): 46%
normalised viability (MDA-MB-231 [3]; 10000 nM): 31.4%
EC50, CellTiter-Glo (HCC1599 [16]): 2260 nM
EC50, CellTiter-Glo (MDA-MB-468 [17]): 207 nM
EC50, CellTiter-Glo (HCC1143 [18]): 4150 nM
EC50, CellTiter-Glo (HDQ-P1): 402 nM
EC50, CellTiter-Glo (MCF-10A): 21.6 nM
EC50, CellTiter-Glo (DU-4475): 4110 nM
EC50, CellTiter-Glo (CAL-120 [14]): 1250 nM
EC50, CellTiter-Glo (Hs578T [19]): 7980 nM
EC50, CellTiter-Glo (MDA-MB-231 [20]): 1770 nM
EC50, CellTiter-Glo (MFM-223 [21]): 1570 nM
EC50, CellTiter-Glo (CAL-51): 1060 nM
EC50, CellTiter-Glo (SK-BR-3 [4]): 127 nM
EC50, CellTiter-Glo (CAL-85-1): 467 nM
EC50, CellTiter-Glo (MDA-MB-436 [22]): 2720 nM
EC50, CellTiter-Glo (BT-474): 2050 nM
EC50, CellTiter-Blue viability (HCC1599 [5]): 70.8 nM
EC50, CellTiter-Blue viability (MDA-MB-468 [6]): 772 nM
EC50, CellTiter-Blue viability (BT-549 [7]): 1310 nM
EC50, CellTiter-Blue viability (HCC1143 [15]): 258 nM
EC50, CellTiter-Blue viability (CAL-120 [8]): 1930 nM
EC50, CellTiter-Blue viability (Hs578T [9]): 4740 nM
EC50, CellTiter-Blue viability (MDA-MB-231 [10]): 435 nM
EC50, CellTiter-Blue viability (MFM-223 [11]): 1310 nM
EC50, CellTiter-Blue viability (SK-BR-3 [12]): 588 nM
EC50, CellTiter-Blue viability (HCC1937): 3300 nM
EC50, CellTiter-Blue viability (MDA-MB-436 [13]): 6370 nM
